Results on 14 compounds are retold here after patent US9375005B2, “5-halogenopyrazole indanyl carboxamides” (BAYER CROPSCIENCE AG, priority 2012, dated 2016).

The test system of one data set is Botrytis cinerea. The data set is described as follows: In vivo preventive test on Botrytis cinerea (grey mould). The settings on record: gherkin plants sprayed 24 h before contamination, grading 4 to 5 days after contamination. The protocol: Gherkin plants (“Vert petit de Paris” variety), sown in starter cups on a 50/50 peat soil-pozzolana substrate and grown at 24° C., are treated at the Z11 cotyledon stage by spraying with the active ingredient prepared as described above. Plants, used as controls, are treated with the mixture of acetone/tween/DMSO/water not containing the active material. After 24 hours, the plants are contaminated by spraying the cotyledons with an aqueous suspension of cryopreserved Botrytis cinerea spores (50 000 spores per ml). The spores are suspended in a nutrient solution composed of 10 g/L of PDB, 50 g/L of D-Fructose, 2 g/L of NH4NO3 and 1 g/L of KH2PO4. […] Grading (% of efficacy) is carried out 4 to 5 days after the contamination, in comparison with the control plants.

A further data set deals with Puccinia recondita. As to the kind of experiment: In vivo preventive test on Puccinia recondita (brown rust on wheat). The settings on record: wheat plants sprayed 24 h before contamination, grading 12 days after contamination. The protocol: Plants, used as controls, are treated with the mixture of acetone/tween/DMSO/water not containing the active material. After 24 hours, the plants are contaminated by spraying the leaves with an aqueous suspension of Puccinia recondita spores (100 000 spores per ml). […] Grading (% of efficacy) is carried out 12 days after the contamination, in comparison with the control plants.

Another data set relates to Pyrenophora teres. The data set is described as follows: In vivo preventive test on Pyrenophora teres (net blotch on barley). The settings on record: barley plants sprayed 24 h before contamination, grading 14 days after contamination. In short, it runs like this: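 "Plaisant" barley grown at 22° C, sprayed with active ingredient at the 1-leaf stage, then inoculated 24 h later with 12 000 spores/ml of P. teres. Efficacy (%) graded 14 days post-contamination against solvent-only (acetone/tween/DMSO/water) controls.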

A further data set concerns Alternaria brassicae. The data set is described as follows: In vivo preventive test on Alternaria brassicae (leaf spot on radish). As to conditions: radish plants sprayed 24 h before contamination, grading 6 days after contamination vs control plants. The protocol:
Radish plants (“Pernod Clair” variety), sown in starter cups on a 50/50 peat soil-pozzolana substrate and grown at 17° C., are treated at the cotyledon stage by spraying with the active ingredient prepared as described above. Plants, used as controls, are treated with the mixture of acetone/tween/DMSO/water not containing the active material. After 24 hours, the plants are contaminated by spraying the cotyledons with an aqueous suspension of Alternaria brassicae spores (50 000 spores per ml). The spores are collected from a 15-day-old culture. […] Grading (% of efficacy) is carried out 6 days after the contamination, in comparison with the control plants.

The test system of the next data set is Uromyces appendiculatus. The data set is described as follows: In vivo preventive test on Uromyces appendiculatus (bean rust). The settings on record: bean plants sprayed 24 h before contamination, grading 11 days after contamination. In short, it runs like this: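 Saxa bean plants grown at 24° C were sprayed at the 2-leaf stage (9 cm) with compound in acetone/tween/DMSO/water; controls got solvent mix only. Leaves inoculated 24 h later with U. appendiculatus spores (150 000 spores/ml). Efficacy (%) graded 11 days post-inoculation versus controls.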

Data set [1] in a line: Measurement of log P values by HPLC on reversed phase columns (EEC directive 79/831 Annex V.A8). Type of data set: physicochemical.
A further data set concerns Pyricularia oryzae. Type of data set: in vivo. The settings on record: rice plants sprayed 24 h before contamination, grading 6 days after contamination.
The next data set deals with Phakopsora pachyrhizi. The data set is described as follows: In vivo preventive Phakopsora test (soybeans). As to conditions: concentration 10 ppm of active ingredient; soybean plants; evaluated 7 days after inoculation.
The subject of another data set is Sphaerotheca fuliginea. As to the kind of experiment: In vivo preventive test on Sphaerotheca fuliginea (powdery mildew on cucurbits). The settings on record: dose 500 ppm; gherkin plants sprayed 24 h before contamination; grading 12 days after contamination. The method, boiled down:
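Gherkin plants sprayed with compound at the Z11 cotyledon stage, then inoculated 24 hours later with Sphaerotheca fuliginea spores (100 000 spores per ml). Kept at about 20 °C and 70-80% relative humidity; % efficacy versus solvent-treated controls graded 12 days after contamination.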

For a further data set, the system named is Septoria tritici. The data set is described as follows: In vivo preventive test on Septoria tritici (leaf spot on wheat). As to conditions: dose 500 ppm; wheat plants sprayed 24 h before contamination; grading 24 days after contamination. The protocol:
Wheat plants (“Scipion” variety), sown in starter cups on a 50/50 peat soil-pozzolana substrate and grown at 22° C., are treated at the 1-leaf stage (10 cm height) by spraying with the active ingredient prepared as described above. Plants, used as controls, are treated with the mixture of acetone/tween/DMSO/water not containing the active material. After 24 hours, the plants are contaminated by spraying the leaves with an aqueous suspension of cryopreserved Septoria tritici spores (500 000 spores per ml). […] Grading (% of efficacy) is carried out 24 days after the contamination, in comparison with the control plants.

Read-outs that look alike come from different tables or passages of the source.

On to `Cn1nc(C(F)F)c(C(=O)Nc2cccc3c2CCC32CC2)c1F` [Example 11], for which the Eff. % in the data set on Botrytis cinerea (dose 500 ppm) was 98%; in the data set on Puccinia recondita (dose 500 ppm), 98%; in the data set on Pyrenophora teres (dose 500 ppm) it was 80%; in the data set on Alternaria brassicae (dose 500 ppm) it was 92%; with Uromyces appendiculatus (dose 500 ppm), 100%. The logP in [1] (method marked [a]) is 3.33[a].
As for `Cc1ccc(NC(=O)c2c(C(F)F)nn(C)c2F)c2c1C(C)(C)CC2C` (stereo not drawn) [Example 19], the Eff. % amounted to 98% in the data set with Botrytis cinerea (dose 500 ppm); 94% in the data set on Puccinia recondita (dose 500 ppm); 97% with Pyrenophora teres (dose 500 ppm); 75% in the data set with Alternaria brassicae (dose 500 ppm); 77% in the data set with Uromyces appendiculatus (dose 500 ppm). In addition, the logP in [1] (method marked [a]) is 3.99[a];; in data set [1] (method marked [b]), 3.92[b].
For the compound `Cn1nc(C(F)F)c(C(=O)Nc2cccc3c2CC(Cc2ccccc2)C3)c1Cl` (stereo not drawn) [Example 39], the Eff. % is reported as 79% in the data set on Alternaria brassicae (dose 500 ppm), 100% in the data set on Uromyces appendiculatus (dose 500 ppm) and 86% with Pyricularia oryzae (dose 500 ppm). Besides, in [1] (method marked [a]), the logP was 4.41[a].
In the case of `CC1CC(C)c2c(NC(=O)c3c(C(F)F)nn(C)c3Cl)cccc21` (stereo not drawn) [Example 44], the Eff. % with Puccinia recondita (dose 500 ppm) is 100%; in the data set on Phakopsora pachyrhizi, 98%; in the data set with Uromyces appendiculatus (dose 500 ppm) it was 100%.
For `CC1Cc2c(NC(=O)c3c(C(F)F)nn(C)c3F)cccc2C1(C)C` (stereo not drawn) [Example 45], the Eff. % was 100% with Puccinia recondita (dose 500 ppm), 100% in the data set on Sphaerotheca fuliginea, 100% with Uromyces appendiculatus (dose 500 ppm) and 83% with Pyricularia oryzae (dose 500 ppm). Further, in data set [1] (method marked [a]), the logP was 3.94[a].
For the compound `CC1Cc2c(NC(=O)c3c(C(F)F)nn(C)c3Cl)cccc2C1(C)C` (stereo not drawn) [Example 46], the Eff. % in the data set with Puccinia recondita (dose 500 ppm) is listed as 100%; with Pyrenophora teres (dose 500 ppm), 75%; in the data set with Phakopsora pachyrhizi, 94%; in the data set with Alternaria brassicae (dose 500 ppm), 86%; with Uromyces appendiculatus (dose 500 ppm), 100%; with Pyricularia oryzae (dose 500 ppm) it was 97%. The logP in data set [1] (method marked [a]) is 4.19[a].
As to `CC1CC2(CC2)c2cccc(NC(=O)c3c(C(F)F)nn(C)c3F)c21` (stereo not drawn) [Example 50], the Eff. % in the data set on Botrytis cinerea (dose 500 ppm) is 100%; in the data set with Puccinia recondita (dose 500 ppm), 98%; with Pyrenophora teres (dose 500 ppm), 80%; with Sphaerotheca fuliginea, 98%; with Alternaria brassicae (dose 500 ppm) it was 93%; in the data set with Uromyces appendiculatus (dose 500 ppm) it was 100%. The logP in data set [1] (method marked [a]) is 3.55[a].
As for `CC1CC2(CC2)c2cccc(NC(=O)c3c(C(F)F)nn(C)c3Cl)c21` (stereo not drawn) [Example 51], the Eff. % in the data set on Botrytis cinerea (dose 500 ppm) is recorded as 94%; in the data set on Puccinia recondita (dose 500 ppm), 98%; with Pyrenophora teres (dose 500 ppm) it was 70%; with Phakopsora pachyrhizi, 93%; in the data set with Uromyces appendiculatus (dose 500 ppm), 100%. Also, in [1] (method marked [a]), the logP was 3.83[a].
Turning to `CC1CC2(CC2)c2cccc(NC(=S)c3c(C(F)F)nn(C)c3F)c21` (stereo not drawn) [Example 60], the Eff. % stood at 100% with Botrytis cinerea (dose 500 ppm); 100% with Pyrenophora teres (dose 500 ppm); 100% in the data set on Sphaerotheca fuliginea; 93% with Septoria tritici; 100% in the data set with Uromyces appendiculatus (dose 500 ppm). Moreover, in data set [1] (method marked [a]), the logP was 3.71[a].
Take `CC1c2c(NC(=O)c3c(C(F)F)nn(C)c3F)cccc2C(C)(C)C1C` (stereo not drawn) [Example 64]: the Eff. % is recorded as 100% with Botrytis cinerea (dose 500 ppm); 100% with Puccinia recondita (dose 500 ppm); 97% in the data set with Pyrenophora teres (dose 500 ppm); 100% in the data set with Sphaerotheca fuliginea; 100% in the data set with Alternaria brassicae (dose 500 ppm); 93% in the data set with Septoria tritici. This compound displayed an Eff. % in the data set on Uromyces appendiculatus (dose 500 ppm) of 100%. Also, the logP in data set [1] (method marked [a]) was 3.96[a].
Take `CC1c2cccc(NC(=O)c3c(C(F)F)nn(C)c3F)c2CC1(C)C` (stereo not drawn) [Example 78]: the Eff. % was 75% with Botrytis cinerea (dose 500 ppm); 98% in the data set with Puccinia recondita (dose 500 ppm); 100% in the data set on Sphaerotheca fuliginea; 95% in the data set on Alternaria brassicae (dose 500 ppm); 88% in the data set on Septoria tritici; 100% in the data set on Uromyces appendiculatus (dose 500 ppm). Besides, the logP in [1] (method marked [a]) was 3.92[a].
`Cn1nc(C(F)F)c(C(=O)Nc2cccc3c2C(C)(C)CC3)c1Cl` [Example 89] had an Eff. % with Pyricularia oryzae (dose 100 ppm) of 93%. For the same compound, the logP in [1] (method marked [a]) is 3.53[a].
`CC1CC2(CCCC2)c2cccc(NC(=O)c3c(C(F)F)nn(C)c3F)c21` (stereo not drawn) [Example 103]: the Eff. % was determined as 100% in the data set on Botrytis cinerea (dose 100 ppm), 98% in the data set with Puccinia recondita (dose 100 ppm), 80% with Pyrenophora teres (dose 100 ppm) and 100% in the data set on Uromyces appendiculatus (dose 100 ppm). Besides, the logP in data set [1] (method marked [a]) was 4.39[a].
As for `CC1CC2(CCCCC2)c2cccc(NC(=O)c3c(C(F)F)nn(C)c3F)c21` (stereo not drawn) [Example 107], the Eff. % in the data set with Botrytis cinerea (dose 100 ppm) is listed as 100%; with Puccinia recondita (dose 100 ppm) it was 100%; in the data set on Alternaria brassicae (dose 100 ppm) it was 97%; with Uromyces appendiculatus (dose 100 ppm) it was 100%. Besides, the logP in [1] (method marked [a]) was 4.73[a].
